Measurements published in PubChem BioAssay (NCI).
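1) Cells in 96-well plates. 2) Compound, 48 h, 5 concentrations. 3) Linear interpolation between surrounding doses. 4) Unreached endpoint = highest concentration. At the GI50, growth is halved. Definition used: TGI = concentration required for complete inhibition of growth.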

How the values were obtained:
Assay in all cases: NCI anticancer screen, dose series, 48 h
ACHN renal = tested on: ACHN renal
HS 578T breast = tested on: HS 578T breast
SK-MEL-2 melanoma = tested on: SK-MEL-2 melanoma
HT29 colon = tested on: HT29 colon
RPMI-8226 leukemia = tested on: RPMI-8226 leukemia
COLO 205 colon = tested on: COLO 205 colon
U251 CNS = tested on: U251 CNS
HL-60(TB) leukemia = tested on: HL-60(TB) leukemia
SK-OV-3 ovarian = tested on: SK-OV-3 ovarian
MALME-3M melanoma = tested on: MALME-3M melanoma

Row | SMILES | TGI (ACHN renal) | TGI (HS 578T breast) | TGI (SK-MEL-2 melanoma) | TGI (HT29 colon) | TGI (RPMI-8226 leukemia) | TGI (COLO 205 colon) | TGI (U251 CNS) | TGI (HL-60(TB) leukemia) | TGI (SK-OV-3 ovarian) | TGI (MALME-3M melanoma) | GI50 (ACHN renal) | GI50 (HS 578T breast) | GI50 (SK-MEL-2 melanoma) | GI50 (HT29 colon) | GI50 (RPMI-8226 leukemia) | GI50 (COLO 205 colon) | GI50 (U251 CNS) | GI50 (HL-60(TB) leukemia) | GI50 (MALME-3M melanoma)
1 | CCc1c2c(cc3c1CC1(C3)Cc3cc4c(c(C(=O)OC)c3C1)CCCC4)CCCC2 (configuration not stated) | > 100 µM | 46.6 µM | > 100 µM | > 100 µM | > 100 µM | > 100 µM | > 100 µM | > 100 µM | > 100 µM | > 100 µM | – | – | – | – | – | – | – | – | –
2 | N#CC1(C#N)NC(c2ccccc2)C(C#N)(C#N)NC1c1ccccc1 (configuration not stated) | > 100 µM | > 100 µM | > 100 µM | > 100 µM | > 100 µM | > 100 µM | > 100 µM | > 100 µM | > 100 µM | > 100 µM | – | – | – | – | – | – | – | – | –
3 | C=CC(O)(CBr)CCC(Br)C(=C)C (configuration not stated) | > 10 µM | > 10 µM | > 10 µM | > 10 µM | > 10 µM | > 10 µM | > 10 µM | > 10 µM | > 10 µM | > 10 µM | – | – | – | – | – | – | – | – | –
4 | COc1cc(CSc2ccc(O)cc2)cc(OC)c1OC | > 100 µM | > 100 µM | 67 µM | > 100 µM | 66.1 µM | > 100 µM | > 100 µM | > 100 µM | > 100 µM | > 100 µM | – | – | – | – | – | – | – | – | –
5 | COc1ccc2c3c(Nc4cccc(/C(C)=N\O)c4)[nH]c4ccccc4c-3c(N=O)c2c1 | 91.7 µM | > 100 µM | 67.7 µM | > 100 µM | > 100 µM | 57.1 µM | > 100 µM | > 100 µM | – | 95.5 µM | 33.3 µM | 94.8 µM | 19.7 µM | 18.3 µM | 25.5 µM | 21.3 µM | 33.3 µM | 16.9 µM | 34.7 µM
6 | COc1ccc(/C=C2/CSCC3=C2NC(=S)NC3c2ccc(OC)c(OC)c2OC)c(OC)c1OC (configuration not stated) | 52.5 µM | > 100 µM | 63.6 µM | 61.1 µM | > 100 µM | 76.9 µM | > 100 µM | > 100 µM | > 100 µM | 78.6 µM | – | – | – | – | – | – | – | – | –
7 | COC1CCON1C(=O)c1ccccc1 (configuration not stated) | > 10 µM | > 10 µM | > 10 µM | > 10 µM | > 10 µM | > 10 µM | – | > 10 µM | > 10 µM | > 10 µM | – | – | – | – | – | – | – | – | –
8 | S=C(NCCc1ccccn1)N/N=C/c1ccccn1 | 4.82 µM | > 100 µM | 9.9 µM | > 100 µM | 0.186 µM | 0.452 µM | > 100 µM | < 0.01 µM | > 100 µM | > 56.5 µM | – | – | – | – | – | – | – | – | –
9 | CC(Oc1ccccc1Cl)C(=O)NN1C(=O)CC(=O)N(c2ccccc2)C1=S (configuration not stated) | > 100 µM | > 100 µM | > 100 µM | > 100 µM | > 100 µM | > 100 µM | > 100 µM | 59.7 µM | > 100 µM | > 100 µM | – | – | – | – | – | – | – | – | –
10 | COc1ccc([N+](=O)[O-])c2c(NCCCN(C)C)ccnc12 | 14.5 µM | 34.6 µM | 4.48 µM | > 32.4 µM | 6.53 µM | 7.17 µM | 23.6 µM | 22.8 µM | 43.2 µM | 5.62 µM | – | – | – | – | – | – | – | – | –
11 | COc1ccc(/C=C/C(=O)/C=C/c2ccc(OC)cc2OC)c(OC)c1 | 21.8 µM | > 100 µM | 13.1 µM | 12.7 µM | 18.6 µM | 51.9 µM | 23.4 µM | 13.9 µM | 37.7 µM | 26.9 µM | – | – | – | – | – | – | – | – | –
12 | Cc1ccc(C2(c3ccc(Cl)cc3)c3ccccc3C3=NCCN32)cc1 (configuration not stated) | 19.8 µM | 33.4 µM | 28 µM | 14.6 µM | 28.9 µM | 18.7 µM | 29 µM | 23.9 µM | 20.7 µM | 16 µM | – | – | – | – | – | – | – | – | –
13 | CCCCCCCCCCCCOP(=O)(O)OP(=O)(O)OCC1OC(n2ccc(N)nc2=O)CC1O (configuration not stated) | > 100 µM | > 100 µM | > 100 µM | > 100 µM | > 100 µM | > 100 µM | > 100 µM | > 100 µM | > 100 µM | > 100 µM | – | – | – | – | – | – | – | – | –
14 | CCCCCCCCCCCC(=O)OC[C@H](C[As](=O)(O)O)OC(=O)CCCCCCCCCCC | 9.07 µM | 8.69 µM | 6.48 µM | 21.7 µM | > 76.8 µM | 38.8 µM | 5.15 µM | > 28.6 µM | 28.9 µM | 7.14 µM | – | – | – | – | – | – | – | – | –
15 | Cc1c(C)c(C)c(Cn2[nH]c(=O)n(C)c2=O)c(C)c1C | > 100 µM | > 100 µM | > 100 µM | > 100 µM | > 100 µM | > 100 µM | > 100 µM | > 100 µM | > 100 µM | > 100 µM | – | – | – | – | – | – | – | – | –
16 | COc1cc2c(c(OC)c1OC)C(=O)[C@@H]1[C@H]2N1C(=O)NCCCl | > 100 µM | > 100 µM | > 100 µM | > 100 µM | > 100 µM | 78.3 µM | > 100 µM | > 100 µM | > 100 µM | > 100 µM | – | – | – | – | – | – | – | – | –
